Earlier results on 13 compounds are cited in patent US20250195455A1, “COMBINATION NASAL AND ORAL THERAPY FOR WEIGHT LOSS” (priority 2022, published 2025).

Read-outs that look alike come from different tables or passages of the source.

The conditions of the series: for Average weight loss/one year: vs. 3% placebo; for evidence of weight loss: no drug trials for weight loss.

Turning to `C[C@@H](Cc1ccccc1)N(C)Cc1ccccc1` [Benzphetamine], the “patients that have 5% weight loss/12 weeks” value is 80%, the “patients that have 10% weight loss/12 weeks” value is listed as 50% and the “Average weight loss/one year” value was 10%.

Regarding `CCN(CC)C(C)C(=O)c1ccccc1` (centres unmarked) [Diethylpropion], the “patients that have 5% weight loss/12 weeks” value is recorded as 80%, the “patients that have 10% weight loss/12 weeks” value is 50% and the “Average weight loss/one year” value was 10%. `CNCCC(Oc1ccc(C(F)(F)F)cc1)c1ccccc1` (centres unmarked) [Fluoxetine]: the “evidence of weight loss” value was “No evidence of weight loss”.

Regarding `C[C@H]1CNCCc2ccc(Cl)cc21` [Lorcaserin], the “weight loss/year vs. placebo” value (per year, vs. placebo) was 3-5%.

For the compound `CCCCCCCCCCC[C@@H](C[C@@H]1OC(=O)[C@H]1CCCCCC)OC(=O)[C@H](CC(C)C)NC=O` [Orlistat], the “weight loss (vs. placebo)/6 months” value (6 months, vs. placebo) is 5%. The net loss result runs as follows: (decreased fat absorption) “approximately 500 kcal/day”; (equivalent of the kcal/day net loss) 1 lb./week. Consider `C[C@H]1[C@H](c2ccccc2)OCCN1C` [Phendimetrazine], for which the “patients that have 5% weight loss/12 weeks” value was 80%, the “patients that have 10% weight loss/12 weeks” value was 50% and the “Average weight loss/one year” value is 10%. As for `CC(C)(N)Cc1ccccc1` [Phentermine], the “patients that have 5% weight loss/12 weeks” value is on record as 80%, the “patients that have 10% weight loss/12 weeks” value was 50% and the “Average weight loss/one year” value is listed as 10%. In the case of `CN[C@H]1CC[C@@H](c2ccc(Cl)c(Cl)c2)c2ccccc21` [Sertraline], the “evidence of weight loss” value is given as “No evidence of weight loss”.

`CC1(C)O[C@@H]2[C@@H](CO[C@@]3(COS(N)(=O)=O)OC(C)(C)O[C@@H]23)O1` [Topiramate]: the “efficacy (vs. placebo)” value (vs. placebo) is on record as “Minimal, if any efficacy”.

With Albeglutide, the “Average weight loss vs. placebo” value (vs. placebo) is on record as 2.9 kg./year. For Dulaglutide, the “Average weight loss vs. placebo” value (vs. placebo) is listed as 2.9 kg./year.

On to Lixisenatide, for which, for the setting “vs. placebo”, the “Average weight loss vs. placebo” value is on record as 2.9 kg./year. For “Semaglutide (HAEGTFTSDVSSYLEGQAAKEFIAWLVKGRG; Glucagon-like peptide 1(7-37) semaglutide; Aib8, R34K, C18 diacid side chain; UniProt P01275 98-128, looked up) [GLP-1 agonist]”, for the setting “vs. placebo”, the “Average weight loss vs. placebo” value is listed as 2.9 kg./year.
